# Measurements as given in ChEMBL document CHEMBL5518215, “Unlocking Antibacterial Potential: Key-Site-Based Regulation of Antibacterial Spectrum of Peptides” (J Med Chem, 2024).
# Assays:
# Escherichia coli [1] = experiment: Antimicrobial activity against Escherichia coli 25922 assessed as absence bacterial growth measured after 18 to 24 hrs incubation by NCCLS method; type: functional; settings: time 18-24 hrs
# Escherichia coli [2] = experiment: Antimicrobial activity against Escherichia coli K88 assessed as absence bacterial growth measured after 18 to 24 hrs incubation by NCCLS method; type: functional; settings: time 18-24 hrs
# Salmonella typhimurium [3] = experiment: Antimicrobial activity against Salmonella typhimurium 14028 assessed as absence bacterial growth measured after 18 to 24 hrs incubation by NCCLS method; type: functional, Salmonella enterica subsp. enterica serovar Typhimurium; settings: Salmonella enterica, time 18-24 hrs
# [4] = Antimicrobial activity against Salmonella pullorum C7913 assessed as absence bacterial growth measured after 18 to 24 hrs incubation by NCCLS method; type: functional, Salmonella enterica subsp. enterica serovar Pullorum; settings: Salmonella enterica, time 18-24 hrs
# Pseudomonas aeruginosa [5] = experiment: Antimicrobial activity against Pseudomonas aeruginosa 27853 assessed as absence bacterial growth measured after 18 to 24 hrs incubation by NCCLS method; type: functional; settings: time 18-24 hrs
# Acinetobacter baumannii [6] = experiment: Antimicrobial activity against Acinetobacter baumannii 1.6769 assessed as absence bacterial growth measured after 18 to 24 hrs incubation by NCCLS method; type: functional; settings: time 18-24 hrs
# Enterococcus faecalis [7] = experiment: Antimicrobial activity against Enterococcus faecalis 29212 assessed as absence bacterial growth measured after 18 to 24 hrs incubation by NCCLS method; type: functional; settings: time 18-24 hrs
# Listeria monocytogenes [8] = experiment: Antimicrobial activity against Listeria monocytogenes 1.10753 assessed as absence bacterial growth measured after 18 to 24 hrs incubation by NCCLS method; type: functional; settings: time 18-24 hrs
# Bacillus cereus [9] = experiment: Antimicrobial activity against Bacillus cereus 1.932 assessed as absence bacterial growth measured after 18 to 24 hrs incubation by NCCLS method; type: functional; settings: time 18-24 hrs
# Staphylococcus aureus [10] = experiment: Antimicrobial activity against Staphylococcus aureus 29213 assessed as absence bacterial growth measured after 18 to 24 hrs incubation by NCCLS method; type: functional; settings: time 18-24 hrs
# Staphylococcus aureus [11] = experiment: Antimicrobial activity against Methicillin-resistant Staphylococcus aureus 43300 assessed as absence bacterial growth measured after 18 to 24 hrs incubation by NCCLS method; type: functional; settings: time 18-24 hrs
# [12] = tested on: Staphylococcus epidermidis; experiment: Antimicrobial activity against Staphylococcus epidermidis 12228 assessed as absence bacterial growth measured after 18 to 24 hrs incubation by NCCLS method; type: functional; settings: time 18-24 hrs
# Staphylococcus aureus [13] = experiment: Antimicrobial activity against Staphylococcus aureus 29213 assessed as absence bacterial growth measured after 18 to 24 hrs incubation by NCCLS m; type: functional; settings: time 18-24 hrs
# Escherichia coli [14] = experiment: Antimicrobial activity against Escherichia coli 25922 assessed as bacterial killing measured after 16 hrs incubation; type: functional
# Escherichia coli [15] = experiment: Antimicrobial activity against Escherichia coli K88 assessed as bacterial killing measured after 16 hrs incubation; type: functional
# Salmonella typhimurium [16] = experiment: Antimicrobial activity against Salmonella typhimurium 14028 assessed as bacterial killing measured after 16 hrs incubation; type: functional, Salmonella enterica subsp. enterica serovar Typhimurium; settings: Salmonella enterica
# Salmonella typhimurium [17] = experiment: Antimicrobial activity against Salmonella typhimurium C7731 assessed as bacterial killing measured after 16 hrs incubation; type: functional, Salmonella enterica subsp. enterica serovar Typhimurium; settings: Salmonella enterica
# [18] = Antimicrobial activity against Salmonella pullorum C7913 assessed as bacterial killing measured after 16 hrs incubation; type: functional, Salmonella enterica subsp. enterica serovar Pullorum; settings: Salmonella enterica
# Pseudomonas aeruginosa [19] = experiment: Antimicrobial activity against Pseudomonas aeruginosa 27853 assessed as bacterial killing measured after 16 hrs incubation; type: functional
# Acinetobacter baumannii [20] = experiment: Antimicrobial activity against Acinetobacter baumannii 1.6769 assessed as bacterial killing measured after 16 hrs incubation; type: functional
# Enterococcus faecalis [21] = experiment: Antimicrobial activity against Enterococcus faecalis 29212 assessed as bacterial killing measured after 16 hrs incubation; type: functional
# Listeria monocytogenes [22] = experiment: Antimicrobial activity against Listeria monocytogenes 1.10753 assessed as bacterial killing measured after 16 hrs incubation; type: functional
# Bacillus cereus [23] = experiment: Antimicrobial activity against Bacillus cereus 1.932 assessed as bacterial killing measured after 16 hrs incubation; type: functional
# Staphylococcus aureus [24] = experiment: Antimicrobial activity against Staphylococcus aureus 29213 assessed as bacterial killing measured after 16 hrs incubation; type: functional
# Staphylococcus aureus [25] = experiment: Antimicrobial activity against Methicillin-resistant Staphylococcus aureus 43300 assessed as bacterial killing measured after 16 hrs incubation; type: functional
# [26] = tested on: Staphylococcus epidermidis; experiment: Antimicrobial activity against Staphylococcus epidermidis 12228 assessed as bacterial killing measured after 16 hrs incubation; type: functional
# Staphylococcus aureus [27] = experiment: Antimicrobial activity against Staphylococcus aureus 25923 assessed as bacterial killing measured after 16 hrs incubation; type: functional
# Salmonella typhimurium [28] = experiment: Antimicrobial activity against Salmonella typhimurium C7731 assessed as absence bacterial growth measured after 18 to 24 hrs incubation by NCCLS method; type: functional, Salmonella enterica subsp. enterica serovar Typhimurium; settings: Salmonella enterica, time 18-24 hrs
# Escherichia coli [29] = experiment: Antimicrobial activity against Escherichia coli 25922 assessed as absence bacterial growth measured after 18 to 24 hrs incubation in presence of 50% serum by NCCLS method; type: functional; settings: time 18-24 hrs
# Escherichia coli [30] = experiment: Antimicrobial activity against Escherichia coli 25922 assessed as absence bacterial growth measured after 18 to 24 hrs incubation in presence of 25% serum by NCCLS method; type: functional; settings: time 18-24 hrs
# Escherichia coli [31] = experiment: Antimicrobial activity against Escherichia coli 25922 assessed as absence bacterial growth measured after 18 to 24 hrs incubation in presence of 12.5% serum by NCCLS method; type: functional; settings: time 18-24 hrs
# Escherichia coli [32] = experiment: Antimicrobial activity against Escherichia coli 25922 assessed as absence bacterial growth measured after 18 to 24 hrs incubation in presence of NaCl by NCCLS method; type: functional; settings: time 18-24 hrs
# Escherichia coli [33] = experiment: Antimicrobial activity against Escherichia coli 25922 assessed as absence bacterial growth measured after 18 to 24 hrs incubation in presence of KCl by NCCLS method; type: functional; settings: time 18-24 hrs
# Escherichia coli [34] = experiment: Antimicrobial activity against Escherichia coli 25922 assessed as absence bacterial growth measured after 18 to 24 hrs incubation in presence of NH4Cl by NCCLS method; type: functional; settings: time 18-24 hrs
# Escherichia coli [35] = experiment: Antimicrobial activity against Escherichia coli 25922 assessed as absence bacterial growth measured after 18 to 24 hrs incubation in presence of MgCl2 by NCCLS method; type: functional; settings: time 18-24 hrs
# Escherichia coli [36] = experiment: Antimicrobial activity against Escherichia coli 25922 assessed as absence bacterial growth measured after 18 to 24 hrs incubation in presence of ZnCl2 by NCCLS method; type: functional; settings: time 18-24 hrs
# Escherichia coli [37] = experiment: Antimicrobial activity against Escherichia coli 25922 assessed as absence bacterial growth measured after 18 to 24 hrs incubation in presence of FeCl3 by NCCLS method; type: functional; settings: time 18-24 hrs
# Erythrocyte = experiment: Hemolytic activity in human RBC at effective concentration measured after 1 hr by microplate reader analysis; type: toxicity, cell-based
# [38] = Cytotoxicity against mouse RAW264.7 cells assessed as cell survival rate measured after 8 hrs by MTT assay; type: toxicity, cell-based
# [39] = Cytotoxicity against human HEK-293T cells assessed as cell survival rate measured after 8 hrs by MTT assay; type: toxicity, cell-based
# [40] = Cytotoxicity against porcine IPEC-J2 cells assessed as cell survival rate measured after 8 hrs by MTT assay; type: toxicity, cell-based, Sus scrofa; settings: pig
substance,measurement,setting,value
H-GKLWLKGVKLWLKGGKLWLKG-NH2,MIC,Escherichia coli [1],1 µM
same,MIC,Escherichia coli [2],0.5 µM
same,MIC,Salmonella typhimurium [3],2 µM
same,MIC,[4],0.5 µM
same,MIC,Pseudomonas aeruginosa [5],4 µM
same,MIC,Acinetobacter baumannii [6],1 µM
same,MIC,Enterococcus faecalis [7],4 µM
same,MIC,Listeria monocytogenes [8],> 32 µM
same,MIC,Bacillus cereus [9],4 µM
same,MIC,Staphylococcus aureus [10],4 µM
same,MIC,Staphylococcus aureus [11],2 µM
same,MIC,[12],2 µM
same,MIC,Staphylococcus aureus [13],2 µM
same,MBC,Escherichia coli [14],1 µM
same,MBC,Escherichia coli [15],0.5 µM
same,MBC,Salmonella typhimurium [16],2 µM
same,MBC,Salmonella typhimurium [17],8 µM
same,MBC,[18],0.5 µM
same,MBC,Pseudomonas aeruginosa [19],4 µM
same,MBC,Acinetobacter baumannii [20],4 µM
same,MBC,Enterococcus faecalis [21],4 µM
same,MBC,Listeria monocytogenes [22],> 32 µM
same,MBC,Bacillus cereus [23],4 µM
same,MBC,Staphylococcus aureus [24],4 µM
same,MBC,Staphylococcus aureus [25],2 µM
same,MBC,[26],4 µM
same,MBC,Staphylococcus aureus [27],4 µM
same,MIC,Salmonella typhimurium [28],4 µM
same,MIC,Escherichia coli [29],> 32 µM
same,MIC,Escherichia coli [30],> 32 µM
same,MIC,Escherichia coli [31],16 µM
same,MIC,Escherichia coli [32],4 µM
same,MIC,Escherichia coli [33],1 µM
same,MIC,Escherichia coli [34],1 µM
same,MIC,Escherichia coli [35],4 µM
same,MIC,Escherichia coli [36],1 µM
same,MIC,Escherichia coli [37],1 µM
same,HC10,Erythrocyte,128 µM
same,IC50 at 8 h,[38],61.3 µM
same,IC50 at 8 h,[39],> 64 µM
same,IC50 at 8 h,[40],8.73 µM
H-GKLWLKGMKLWLKGGKLWLKG-NH2,MIC,Escherichia coli [1],2 µM
same,MIC,Escherichia coli [2],1 µM
same,MIC,Salmonella typhimurium [3],2 µM
same,MIC,[4],1 µM
same,MIC,Pseudomonas aeruginosa [5],4 µM
same,MIC,Acinetobacter baumannii [6],1 µM
same,MIC,Enterococcus faecalis [7],4 µM
same,MIC,Listeria monocytogenes [8],> 32 µM
same,MIC,Bacillus cereus [9],1 µM
same,MIC,Staphylococcus aureus [10],4 µM
same,MIC,Staphylococcus aureus [11],2 µM
same,MIC,[12],4 µM
same,MIC,Staphylococcus aureus [13],4 µM
same,MBC,Escherichia coli [14],2 µM
same,MBC,Escherichia coli [15],1 µM
same,MBC,Salmonella typhimurium [16],2 µM
same,MBC,Salmonella typhimurium [17],8 µM
same,MBC,[18],1 µM
same,MBC,Pseudomonas aeruginosa [19],8 µM
same,MBC,Acinetobacter baumannii [20],1 µM
same,MBC,Enterococcus faecalis [21],8 µM
same,MBC,Listeria monocytogenes [22],> 32 µM
same,MBC,Bacillus cereus [23],2 µM
same,MBC,Staphylococcus aureus [24],4 µM
same,MBC,Staphylococcus aureus [25],2 µM
same,MBC,[26],4 µM
same,MBC,Staphylococcus aureus [27],16 µM
same,MIC,Salmonella typhimurium [28],4 µM
same,MIC,Escherichia coli [29],> 32 µM
same,MIC,Escherichia coli [30],> 32 µM
same,MIC,Escherichia coli [31],32 µM
same,MIC,Escherichia coli [32],8 µM
same,MIC,Escherichia coli [33],2 µM
same,MIC,Escherichia coli [34],2 µM
same,MIC,Escherichia coli [35],8 µM
same,MIC,Escherichia coli [36],2 µM
same,MIC,Escherichia coli [37],2 µM
same,HC10,Erythrocyte,128 µM
same,IC50 at 8 h,[38],> 64 µM
same,IC50 at 8 h,[39],> 64 µM
same,IC50 at 8 h,[40],21 µM
H-GKLWLKGFKLWLKGGKLWLKG-NH2,MIC,Escherichia coli [1],2 µM
same,MIC,Escherichia coli [2],1 µM
same,MIC,Salmonella typhimurium [3],2 µM
same,MIC,[4],0.5 µM
same,MIC,Pseudomonas aeruginosa [5],4 µM
same,MIC,Acinetobacter baumannii [6],2 µM
same,MIC,Enterococcus faecalis [7],2 µM
same,MIC,Listeria monocytogenes [8],> 32 µM
same,MIC,Bacillus cereus [9],2 µM
same,MIC,Staphylococcus aureus [10],4 µM
same,MIC,Staphylococcus aureus [11],2 µM
same,MIC,[12],4 µM
same,MIC,Staphylococcus aureus [13],4 µM
same,MBC,Escherichia coli [14],2 µM
same,MBC,Escherichia coli [15],1 µM
same,MBC,Salmonella typhimurium [16],8 µM
same,MBC,Salmonella typhimurium [17],32 µM
same,MBC,[18],2 µM
same,MBC,Pseudomonas aeruginosa [19],16 µM
same,MBC,Acinetobacter baumannii [20],2 µM
same,MBC,Enterococcus faecalis [21],4 µM
same,MBC,Listeria monocytogenes [22],> 32 µM
same,MBC,Bacillus cereus [23],2 µM
same,MBC,Staphylococcus aureus [24],4 µM
same,MBC,Staphylococcus aureus [25],8 µM
same,MBC,[26],4 µM
same,MBC,Staphylococcus aureus [27],4 µM
same,MIC,Salmonella typhimurium [28],8 µM
same,MIC,Escherichia coli [29],> 32 µM
same,MIC,Escherichia coli [30],> 32 µM
same,MIC,Escherichia coli [31],16 µM
same,MIC,Escherichia coli [32],4 µM
same,MIC,Escherichia coli [33],4 µM
same,MIC,Escherichia coli [34],2 µM
same,MIC,Escherichia coli [35],4 µM
same,MIC,Escherichia coli [36],2 µM
same,MIC,Escherichia coli [37],2 µM
same,HC10,Erythrocyte,128 µM
same,IC50 at 8 h,[38],31 µM
same,IC50 at 8 h,[39],36.6 µM
same,IC50 at 8 h,[40],35.7 µM
